Test results taken from patent publication US20210251975A1, “USE OF CICLOPIROX FOR INHIBITING HBV CORE ASSEMBLY” (GWANGJU INSTITUTE OF SCIENCE AND TECHNOLOGY, priority 2018, published 2021).

Legend:
[1] = tested on: HBV; experiment: HBV infection system in NTCP-HepG2 and NTCP-Huh7 cells; type: cell-based, Hepatitis B virus (HBV); conditions: NTCP-HepG2 and NTCP-Huh7, 14 days, concentration gradient
Method: Specifically, after treating HepG2 and Huh7 cell lines which express a receptor (NTCP) essential for HBV infection with ciclopirox for 6 hours, the supernatant of HepG2.2.15 cells were treated with ciclopirox. 16 hours later, after viral washing, followed by treating with ciclopirox every day for 14 days, the cells and cell supernatant were collected and analyzed. B and C in FIG. 6 show a result of investigating the expression of NTCP in the NTCP cell lines by immunoblot and flow cytometry. D to F in FIG. 6 show the HBV-inhibiting effect of ciclopirox in the virus infection system.
In addition, after treating HBV-infected liver cancer cell lines NTCP-HepG2 and NTCP-Huh7 with ciclopirox, the degree of HBV proliferation was analyzed. After pretreating the liver cancer cell lines with ciclopirox for 6 hours, the cells were incubated with ciclopirox and HBV for 16 hours. Then, the cells were analyzed after culturing for 14 days. This experimental procedure is schematically illustrated in A in FIG. 6. As shown in B and C in FIG. 6, the NTCP protein expressed from the liver cancer cells NTCP-HepG2 and NTCP-Huh7 was analyzed by immunoblot and flow cytometry.

[2] = tested on: HBV; experiment: HBV-expressing mouse (hydrodynamic injection of pAAV HBV 1.2x plasmid); type: in vivo
Method: Specifically, after expressing HBV in mouse by injecting using a hydrodynamic injection method an HBV-expressing pAAV HBV 1.2× plasmid into the mouse tail, the drug was treated every day for 5 days.
Specifically, HBV was produced in vivo by hydrodynamically injecting an HBV-expressing plasmid into mouse tail. Then, after treating with ciclopirox alone, tenofovir alone, or a combination of ciclopirox and tenofovir every day for 5 days, the degree of proliferation of HBV in mouse serum was investigated. The experimental procedure is schematically illustrated in A in FIG. 8.

[3] = tested on: HBV; experiment: Screening of FDA-approved drug library: quantity of released HBV DNA from HepG2.2.15 cells; type: cell-based, Hepatitis B virus (HBV); conditions: treated for 6 days
Method: (§1) After treating cells with drugs such as ciclopirox, entecavir, and/or tenofovir, the supernatant of the cells was collected. After adding to 30 μL of the supernatant 1×PBS of the same volume, 6 μL of 1 N NaOH was added. After incubation at 37° C. for 1 hour, 6 μL of Tris-HCl/HCl was added. Then, the protein was denatured by heat-treating at 98° C. for 5 minutes. After removing the denatured protein through centrifugation, the virus existing in the supernatant was quantified by real-time PCR.
For screening of a drug having inhibitory activity against HBV, an FDA-approved drug library with proven safety was used.
Specifically, after treating HBV-producing HepG2.2.15 cells with about 1,000 drugs at 1 mM every day for 3 days, the quantity of released HBV DNA was measured. After treating the cells with 19 drugs selected through the first screening for 6 days according to the same method, 13 drugs were selected by measuring HBV DNA (second screening). Entecavir, which is used as an HBV drug, was used as a positive control group.

[4] = tested on: HBV; experiment: HBV DNA released out of or remaining in cells at ciclopirox concentration gradient; type: cell-based, Hepatitis B virus (HBV); conditions: HBV-expressing (HepG2.2.15) and HBV-overexpressing cell lines, 6 days, increasing concentration
Text: Specifically, A and B in FIG. 5 show a result of treating HepG2.2.15 cells and HBV-expressing liver cells with ciclopirox for 6 days and investigating the decrease of HBV DNA at different concentration gradients. C and D FIG. 5 show a result of investigating the inhibitory effect of ciclopirox by extracting HBV DNA from the cells rather than the DNA secreted out of the cells. Specifically, after lysing HepG2.2.15 cells and HBV-expressing liver cells and removing […] using micrococcal nuclease, virus DNA was extracted and its expression level was investigated. As a result, it was confirmed that HBV DNA was decreased according to the concentration gradient of ciclopirox.
as §1
After treating cells with drugs such as ciclopirox, entecavir, and/or tenofovir, the cells were washed with 1×PBS. Then, after lysing the cells and treating with nuclease, HBV DNA was extracted from the cells. […]

[5] = tested on: HBV core protein; experiment: Structural analysis (crystals) of ciclopirox binding site of HBV core protein and Y118 mutation; set-up: species or system Hepatitis B virus (HBV)
Method: The secondary structure of the protein was computed using STRIDE. […] E and F in FIG. 3 show the ciclopirox-bound and ciclopirox-free sites of chains B and C.
Therefore, the ciclopirox binding site of the HBV core protein was investigated. Specifically, structural analysis of the core protein was conducted by forming crystals.

[6] = molecular target: T1, HBV core and capsid proteins (Hepatitis B virus genotype D subtype ayw, UniProt P03146); experiment: Expression of core and capsid proteins (immunoblot) for the 19 screened drugs; type: cell-based; conditions: D in FIG. 1
T1 construct: expressed in transfected cells; host or cells: HepG2.2.15
T1 sequence (P03146 whole entry): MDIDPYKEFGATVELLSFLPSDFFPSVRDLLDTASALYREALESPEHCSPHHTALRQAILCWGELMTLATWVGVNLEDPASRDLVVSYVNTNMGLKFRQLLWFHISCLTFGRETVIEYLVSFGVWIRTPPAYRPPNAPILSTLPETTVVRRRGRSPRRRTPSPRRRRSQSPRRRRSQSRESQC
Text: (§2) Results were expressed as mean±standard deviation and tested by the Student's t-test. *: p<0.05, ** p<0.01.
It was identified to be ciclopirox.

[7] = tested on: core protein 149 (CP149) dimers; experiment: Core assembly reaction of purified core protein 149 (CP149) dimers, incl. sucrose gradient ultracentrifugation and electron microscopy; type: biochemical, Hepatitis B virus (HBV)
Text: In addition, in order to investigate whether the core assembly is inhibited and the protein remains as dimers, reaction products were separated through ultracentrifugation at different sucrose concentrations after the assembly of CP149 under the assembly reaction conditions.

[8] = tested on: HBV; experiment: Combination treatment of ciclopirox with entecavir or tenofovir in liver cancer cell lines; type: cell-based, Hepatitis B virus (HBV); conditions: ciclopirox alone or plus 1 mM ETV or 1 mM TDF
Method: After treating with ciclopirox according to a concentration gradient, 1 mM ETV or 1 mM TDF was treated in combination.
After treating cells with drugs such as ciclopirox, entecavir, and/or tenofovir, the cells were washed with 1×PBS. Then, after lysing the cells and treating with nuclease, HBV DNA was extracted from the cells. The DNA was extracted according to the instruction of the manufacturer (InvivoGen).

[9] = tested on: HBsAg protein; experiment: Secreted HBsAg protein by ELISA in HBV-expressing and HBV-overexpressing cell lines; type: cell-based, Hepatitis B virus (HBV); conditions: ciclopirox concentration gradient
Method: as §2
The secreted HBsAg protein of HBV was analyzed by enzyme-linked immunosorbent assay. Specifically, HBsAg-specific ELISA was used. A supernatant collected from the cells treated with each drug was analyzed using a kit (hepatitis B surface antigen Ab ELISA kit) according to the instruction of the manufacturer (Abnova).

[10] = tested on: HBV core protein; experiment: Core assembly in core protein-expressing and entire HBV protein-expressing cell lines
Method: Specifically, the isolated Cp149 dimeric protein was incubated with a core assembly reaction buffer (150 mM NaCl, 15 mM HEPES) and the drug at 37° C. for 1 hour. Then, after separating the protein on agarose gel, immunoblot was conducted using a rabbit polyclonal anti-HBV core antibody. In addition, for isolation of the core expressed in the cells, the cells were lysed with 1% NP-40 and ultracentrifuged (55,000 rpm) at 20° C. for 8 hours. The assembled core that settled down at the bottom was separated on agarose gel and then immunoblot was conducted using a rabbit polyclonal anti-HBV core antibody.

[11] = sucrose gradient 10% to 50%, ultracentrifugation, treated vs not treated

Cc1cc(C2CCCCC2)n(O)c(=O)c1 [ciclopirox]
HBV DNA released out of the cells [1]: decrease | HBV cccDNA remaining in the cells [1]: decrease | HBV rcDNA remaining in the cells [1]: decrease | HBV DNA 5 days after the treatment ([2]; ciclopirox alone): almost nonexistent | amount of HBV DNA in blood ([2]; treated every day for 5 days): remarkably reduces | amount of the HBsAg protein in blood ([2]; treated every day for 5 days): no significant difference | quantity of the HBV core protein in liver cells ([2]; treated every day for 5 days): reduced | inhibition of released HBV DNA (second screening) [3]: consistent effects | quantity of HBV DNA released out of cells [4]: decreased | quantity of HBV DNA remaining in cells [4]: decreased | inhibition of core assembly with core protein mutated at Y118 ([5]; D in FIG. 3): mutation at Y118 reduces inhibition of core assembly | binding to the HBV core protein ([5]; crystal structure, hexameric core protein, hydrogen bonding at tyrosine 118): binding directly to the HBV core protein | expression of the capsid protein [6]: remarkably inhibited | expression of the core protein [6]: without affecting | morphology of the assembled core (electron microscopic images) ([7]; E in FIG. 2): the size of the assembled core is enlarged by ciclopirox and the circular shape is destroyed | assembly of the purified core protein 149 (CP149) dimers ([7]; assembly reaction buffer, 37° C., 1 hour, immunoblot): inhibited as the concentration of ciclopirox increased | core-assembled CP149 (fractions 5-8) [7, 11]: decreased | dimeric CP149 (fractions 1-3) [7, 11]: increased | quantity of the HBsAg protein secreted out of the cells [8]: No HBsAg-inhibiting effect | amount of the released HBsAg protein [9]: no effect | core assembly in each cell line [10]: inhibited according to the concentration gradient
